The values below come from patent US9296710B2, “Bicyclo (3.1.0) hexane-2, 6-dicarboxylic acid derivatives as mGlu2 receptor agonist” (Eli Lilly and Company, priority 2011, dated 2016).

The conditions of data set [1]: both, human, pH 7.4. The protocol: Liver S9 fractions are obtained from Xenotech LLC (Lenexa, Mo.). The lot is from a pool of two donors, one male and one female. The liver S9 fraction is prepared and diluted using a homogenization buffer consisting of 50 mM Tris, pH 7.4 at 4° C. and 150 mM potassium chloride without EDTA. Prodrug compounds are incubated in the liver homogenate for 2 hours at 37° C., after which the concentration of compound is determined by LC/MS/MS. Hydrolysis of Clopidogrel to Clopidogrel Carboxylic Acid is utilized as an assay positive control.
Incubations are conducted in 96-well format and all prodrug compounds are run in duplicate on each day. Stock prodrug compound solutions are prepared in water at a concentration of 1 mM. Human liver S9 fraction is diluted to a final protein concentration of 0.5 mg/mL in 100 mM PBS buffer, pH 7.4. […]
LC/MS/MS quantification of compound formed during the incubation is performed on a Sciex API 4000, Analyst version 1.4.2, TURBOIONSPRAY®, positive ionization, and Selected Reaction Monitoring (SRM). […]
Concentrations of hydrolyzed compound in the incubation mixtures are determined from standard curves prepared by replicate two-fold dilution starting at 10 μM in 100 mM PBS pH 7.4 and subsequently quenched with methanol-internal standard solution identical to the samples. Averages and standard deviations are calculated using MICROSOFT® Office EXCEL® 2007. […]

For data set [2], the system named is stress-induced hyperthermia in rats. In words: Attenuation of Stress-Induced Hyperthermia in Rats. To be noted: i.p. In kind it is in vivo, rat. The text has this: In many anxiety disorders, hyperthermia occurs as part of the pathology and is considered a symptom of the disease. Compounds which attenuate stress-induced hyperthermia in animals are believed to be useful in treating anxiety disorders in humans. Generalized anxiety disorder is an example of such disorders that may be treated with such compounds. The conventional and minimally-invasive method for analyzing stress-induced hyperthermia is by measuring body temperature, and stress-induced increases in body temperature, via rectal thermometer. Male Fischer F-344 rats (Harlan, Indianapolis, Ind., USA) weighing between 275-350 g are tested. All animals are individually-housed with food and automated water available ad libitum, and maintained on a 12 h light/dark cycle (lights on at 06:00) Animals are fasted for approximately 12-18 hours before the experiment, which is conducted during the light phase. Rats are dosed one hour prior to the experiment by intraperitoneal (i.p.) route of administration in a dose volume of 1 mL/kg. The vehicle used was water with enough NaOH added to achieve a pH between 5-7. The mGluR5 antagonist MTEP (3-[(2-methyl-1,3-thiazol-4-yl)ethynyl]pyridine) and mGlu2/3 agonist LY317206 were used as quality controls, given that they produced reliable efficacy in this model Immediately following dosing, rats are returned to their home cage, and the experimenter turns off the lights and leaves the room. The dosing room is darkened for the remainder of the 1-hr pretreatment period.
After the pretreatment period, rats are taken individually to a brightly lit adjacent room where baseline body temperatures are determined by insertion of a rectal probe lubricated with mineral oil. Body temperature is assessed using a […] BAT-12® Microprobe Thermometer with a […] RET-2® rat rectal probe (Physitemp Instruments Inc., Clifton, N.J., USA). The probe is inserted approximately 2 cm into the rectum, to measure the core body temperature (this is the baseline body temperature, T1, in degrees Celsius). Ten minutes later a second body temperature measurement is recorded (T2). […]

The target of the next data set is T1, human mGlu2 receptor (Homo sapiens, UniProt Q14416).
T1 construct: expressed in transfected cells; host or cells: AV-12 cells (Syrian hamster fibroblasts), co-transfected with rat EAAT1 and Galpha15
T1 sequence (Q14416 19-872): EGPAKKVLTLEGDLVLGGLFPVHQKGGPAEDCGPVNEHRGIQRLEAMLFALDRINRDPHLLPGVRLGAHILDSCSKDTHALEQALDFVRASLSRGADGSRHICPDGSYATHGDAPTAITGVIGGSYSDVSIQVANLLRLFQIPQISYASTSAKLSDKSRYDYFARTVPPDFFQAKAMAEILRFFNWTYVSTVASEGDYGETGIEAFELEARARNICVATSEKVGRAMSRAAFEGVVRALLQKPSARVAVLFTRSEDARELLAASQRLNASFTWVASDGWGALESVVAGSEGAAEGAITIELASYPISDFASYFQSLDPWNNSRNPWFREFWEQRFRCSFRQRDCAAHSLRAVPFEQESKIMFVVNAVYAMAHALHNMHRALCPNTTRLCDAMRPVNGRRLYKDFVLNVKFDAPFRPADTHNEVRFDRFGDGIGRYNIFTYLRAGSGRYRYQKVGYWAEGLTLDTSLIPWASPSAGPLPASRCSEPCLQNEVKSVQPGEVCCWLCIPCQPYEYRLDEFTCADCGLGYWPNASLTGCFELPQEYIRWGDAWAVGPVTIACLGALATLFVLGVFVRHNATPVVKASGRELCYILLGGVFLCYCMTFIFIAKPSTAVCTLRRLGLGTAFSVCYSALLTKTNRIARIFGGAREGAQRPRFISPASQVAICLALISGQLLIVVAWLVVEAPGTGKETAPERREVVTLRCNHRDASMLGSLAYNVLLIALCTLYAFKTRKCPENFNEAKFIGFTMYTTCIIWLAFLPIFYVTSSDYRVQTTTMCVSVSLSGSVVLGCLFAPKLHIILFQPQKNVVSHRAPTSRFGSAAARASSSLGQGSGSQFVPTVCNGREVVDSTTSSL
In words: Human mGlu2 Agonist FLIPR Assay. In kind it is cell-based. The text has this:
AV-12 cell lines, derived from Syrian Hamster fibroblasts and stably expressing the human mGlu2 receptor and co-transfected with the rat glutamate transporter EAAT 1 (Excitatory Amino Acid Transporter 1) and the Gα15 subunit, are used for these studies. The expression of Gα15 allows Gi-coupled receptors to signal through the phospholipase C pathway, resulting in the ability to measure receptor activation by a fluorometric calcium response assay. The cell lines are maintained by culturing in Dulbecco's Modified Eagle's Medium (DMEM) with high glucose and pyridoxine hydrochloride supplemented with 5% dialyzed fetal bovine serum, 1 mM sodium pyruvate, 10 mM HEPES [4-(2-hydroxyethyl)-1-piperazineethanesulfonic acid], 1 mM of L-glutamine, and 5 μg/mL blasticidin (all media are purchased from Invitrogen). Confluent cultures are passaged biweekly using an enzyme-free dissociation solution (Chemicon S-004-B).
Intracellular calcium levels are monitored before and after the addition of compounds using a Fluorometric Imaging Plate Reader (FLIPR®, Molecular Devices). The assay buffer is comprised of Hank's Buffered Salt Solution (HBSS; Sigma) supplemented with 20 mM HEPES. […] The dye solution is removed and replaced with fresh assay buffer (50 μL per well). […] Results are analyzed using PRISM® v4.03 (GraphPad Software). […] Exemplified compounds of the present invention are solubilized as 10 mM stocks in 0.1N NaOH and stored at −20 C. They are diluted through a three-fold dilution series into assay buffer. After taking an initial 5-sec fluorescent read on the FLIPR® instrument, a compound of the present invention is added to the cell plate (50 μL per well). Data are collected every second for the first 30 seconds and then every 3 seconds for a total of 90 seconds in order to detect agonist activity. The maximal response is defined as that induced by ECmax (100 μM glutamate). The compound effect is measured as maximal minus minimal peak heights in relative fluorescent units (RFUs) corrected for basal fluorescence measured in the absence of glutamate. Determinations are carried out using single plates. Agonist effects are quantified as percent stimulation induced by compound alone relative to the maximal glutamate response. All data are calculated as relative EC50 values using a four-parameter logistic curve fitting program (ACTIVITY BASE® v5.3.1.22).

Data set [3] concerns PCP-induced hyperlocomotor activity in rats. In words: Reversal of Phencyclidine (PCP)-Induced Hyperlocomotor Activity in Rats. In kind it is in vivo. To be noted: Rattus norvegicus. The text has this:
Administration of NMDA receptor antagonists, such as ketamine or phencyclidine (PCP), produces psychotomimetic-like effects in humans that are similar to those symptoms observed in patients with schizophrenia.
Motor activity is monitored by placing individual male, Sprague-Dawley (Harlan, Indianapolis, Ind.) rats in transparent, plastic shoe-box cages of the dimensions 45×25×20 cm, with 1 cm depth of wood chips as bedding, and a metal grill on top of the cage. Motor monitors (Kinder Scientific) consist of a rectangular rack of 12 photobeams arranged in an 8×4 formation, (or a high density grouping of 22 in a 15×7 pattern) at a height of 5 cm, with a second rack (for measuring rearing behaviors) at a height of 15 cm. The shoe box cage is placed inside of these racks, with the racks on a 3 foot high tabletop in an isolated room. […] On the test day, rats are placed in the test cage and allowed to acclimate for 30 minutes prior to PCP challenge; rats are monitored for an additional 60 minutes following PCP administration.
Data analysis and ED50 calculations are conducted using GraphPad PRISM® (San Diego, Calif. USA). Power analyses have determined that 8-10 rats per group are needed to have appropriate statistical power for detecting treatment differences (power=0.8). […]

As for `COC(=O)[C@H](c1ccccc1Cl)N1CCc2sccc2C1` [Clopidogrel], the “Hydrolysis of Clopidogrel to Clopidogrel Carboxylic Acid (positive control)” value in data set [1] came out at 73.0%.

With `Cc1nc(C#Cc2cccnc2)cs1` [MTEP, 3-[(2-methyl-1,3-thiazol-4-yl)ethynyl]pyridine, reference compound], the “reduction of stress-induced hyperthermia” value in data set [2] (3 mg/kg) came out at 53%.

What is called EC50 is the concentration needed to bring the measured effect to its halfway point. A word on the ED50: it is the midpoint of the dose-response relation. Consider `N[C@@]1(C(=O)O)C[C@H](Sc2nc[nH]n2)[C@H]2[C@H](C(=O)O)[C@H]21` [Example 10, (1R,2S,4S,5R,6R)-2-amino-4-(1H-1,2,4-triazol-3-ylsulfanyl)bicyclo[3.1.0]hexane-2,6-dicarboxylic acid], for which the EC50 at human mGlu2 receptor (hMGLUR2 FLIPR assay, AV-12 cells expressing human mGlu2, calcium response, read-out: Relative EC50) was 69.1 nM. For the same molecule, on human mGlu2 receptor (percent stimulation relative to maximal glutamate response (100 μM glutamate), read-out: Relative % Efficacy), the Emax was determined as 89%. In addition, the “maximal reduction of stress-induced hyperthermia” value in data set [2] (at 10 mg/kg) is on record as 75%. The “T35 (dose producing 35% reduction in stress-induced hyperthermic response)” value in data set [2] (one hour pretreatment) worked out at 1.7 mg/kg. For the same molecule, in data set [3] (i.p. administration, 30 minutes prior to 5 mg/kg PCP), the ED50 came out at 0.9 mg/kg.

Regarding `CSCC[C@H](N)C(=O)N[C@@]1(C(=O)O)C[C@H](Sc2nnc[nH]2)[C@H]2[C@H](C(=O)O)[C@H]21.Cl` [Example 25, (1R,2S,4S,5R,6R)-2-(L-methionylamino)-4-(4H-1,2,4-triazol-3-ylsulfanyl) bicyclo[3.1.0] hexane-2,6-dicarboxylic acid hydrochloride], the ED50 in data set [3] (oral administration (prodrug), overnight fasted, 4 hours prior to 5 mg/kg PCP) turned out to be 6.4 mg/kg.
